Assay: Inhibition of purified Triticum aestivum (wheat) germ imidazole glycerol phosphate dehydratase

Row | Compound | IC50 [nM]
1 | O=P(O)(O)[C@H]1C[C@@](O)(c2nc[nH]n2)C1 | 270000
2 | O[C@@]1(c2nc[nH]n2)CCC[C@H](P(O)(O)=P)C1 | 1800
3 | O=P(O)(O)[C@@H]1CCC[C@](O)(c2nc[nH]n2)C1 | 18
4 | O=P(O)(O)[C@@H]1CCC[C@](O)(c2nc[nH]n2)C1 (relative stereo) | 40
5 | O=P(O)(O)[C@@H]1CCC[C@@](O)(c2nc[nH]n2)C1 (relative stereo) | 10000

From ChEMBL document CHEMBL3046514, “Synthesis of novel cyclobutylphosphonic acids as inhibitors of imidazole glycerol phosphate dehydratase” (Tetrahedron, 1997)
